This is an account of results in PubChem BioAssay AID720668 (NMMLSC, 2013).

SMILES strings stand for the structures. Activity calls are given as the source filed them.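 Rule for the calls: active = MAPK inhibition above 50%; inactive = inhibition below 50%.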

The test system of the test is ERK MAP kinase activity (EKAR reporter), human. The experiment in a line: blockers of ERK reporter and Cdc25C phosphorylation – TALL-104 cells, EKAR, flow cytometry, CherryPick01, mechanism study for lytic granule exocytosis inhibitor project, late-stage follow-up (AID 720668). Particulars: EKAR/pCdc25C flow cytometry, PMA/thapsigargin, at 30 µM, active compounds read high.
With `CC1=NOC(=O)/C1=C/c1ccc(-c2ccc(Cl)cc2)o1`, the inhibition (as a rule, the drop in the measured response relative to a control, in per cent) was 16.5% (inactive).
Regarding `COc1ccc(-c2cc(NC=O)c3ncc(-c4cccc(OC)c4)n3c2)cc1`, the inhibition is -34.2% (inactive).
Regarding `COc1ccc(-c2cc(NC=O)c3ncc(-c4ccccc4)n3c2)cc1OC`, the inhibition is -19.8% (inactive).
In the case of `CCCCC[C@@H](C)N1C[C@H](COCc2ccccc2)Oc2cc(N3CC[C@@H](N(C)C)C3)ccc2S1(=O)=O` it was -5.3% (inactive); in that of `Cc1ccc(Nc2nc(NCc3ccco3)c3ccccc3n2)cc1`, -6.4% (inactive).
In the case of `O=C(Cn1sc2ccccc2c1=O)Nc1ccc(F)cc1` it was 4.6% (inactive); in that of `CC1COCC(C)N1C1=C(Cl)C(=O)c2ccccc2C1=O` (configuration not stated), -52.7% (inactive).
For `COc1ccc(N2C(=O)CC(Sc3nnc(-c4ccccc4)o3)C2=O)cc1` (configuration not stated) the value was -4% (inactive); for `CCCCC[C@@H](C)N1C[C@@H](COCc2ccccc2)Oc2cc(N3CC[C@H](N(C)C)C3)ccc2S1(=O)=O`, 6.3% (inactive); for `CCN(CC)CCCNc1ccc(-c2nnc(-c3ccc(OCC(C)C)cc3)o2)cn1`, -20.8% (inactive).
Take `Cc1ccc(S(=O)(=O)n2ccc3c(OCCOCCNCc4ccc(F)cc4)cccc32)cc1`: the inhibition was -15.1% (inactive).
As to `O=C(CN1C(=O)/C(=C\c2cccc(Br)c2)Oc2ccccc21)NCCCN1CCOCC1`, the inhibition is -3.6% (inactive).
In the case of `O=c1c2ccc(F)cc2sn1-c1ccccc1` it was 21.5% (inactive); in that of `CC(C)(c1ccccc1)c1ccc(OCC(O)CNC2CCN(Cc3ccccc3)CC2)cc1` (configuration not stated), -13.5% (inactive).
For `O=c1c2ccccc2sn1-c1ccccc1` the value was -1.6% (inactive); for `COc1ccccc1CNc1nc(NCc2ccc(C(C)C)cc2)c2sccc2n1`, -9.9% (inactive); for `CN(C)CCNC(=O)c1ccc(-c2cn3c(-c4ccc(Oc5ccccc5)cc4)cnc3cn2)cc1`, -6.6% (inactive).
Turning to `O=CNc1cc(-c2ccsc2)cn2c(-c3ccccc3)cnc12`, the inhibition was -19% (inactive).
For `CCCCC[C@@H](C)N1C[C@@H](COCc2ccccc2)Oc2cc(N3CC[C@@H](N(C)C)C3)ccc2S1(=O)=O` the value was 7.3% (inactive); for `COc1ccc(-n2sc3ccccc3c2=O)cc1`, 13.3% (inactive).
In the case of `COC(=O)c1c(NC(=O)c2nc3ccccc3s2)sc2c1CC(C)(C)NC2(C)C` it was 14.4% (inactive); in that of `O=C(Cn1sc2ccccc2c1=O)NC12CC3CC(CC(C3)C1)C2`, 29.8% (inactive).
